Assay [1] concerns central nervous system (CNS) metastases. The assay can be described thus: Phase 1 trial: intracranial efficacy (RANO-BM). In kind it is in vivo, human. The settings on record: for Intracranial lesion reduction: case, KIF5B-RET NSCLC, 160 mg BID. From the text:
Ongoing assessments are underway to gain a more comprehensive understanding of its intracranial efficacy.

Assay [2] has as its system Baf3-CCDC6-RET V804M cells. The assay can be described thus: Proliferation assay (CellTiter-Glo). It is filed as cell-based, murine. The conditions noted are these: Mus musculus, read-out: Cellular Viability IC50. On the procedure:
(§1) The cell lines HEK293T, Baf3, TT cell and NIH-3T3 were obtained from the Cell Resource Center, Peking Union Medical College (PCRC). HEK293T and NIH-3T3 were maintained in DMEM high glucose medium (#C3113-0500, Vivacell) supplemented with 10 % FBS (#10500064, Gibco) and 1 % Penicillin-Streptomycin (#15140122, Gibco). The murine Pro‐B cell line Baf3 was cultured in RPMI 1640 medium (#C3010, Vivacell) supplemented with 10 % FBS, 1 % Penicillin-Streptomycin and 1 ng/mL recombinant murine interleukin-3 (#213-13, PeproTech). All stably transformed BaF3 cells were cultured in RPMI 1640 without IL‐3. The TT MTC cell was grown in Ham's F-12K medium (#21127022, Gibco) supplemented with 10 % FBS and 1 % Penicillin-Streptomycin. Cells were cultured at 37 °C under 5 % CO2 and high humidity conditions.
(§2) KIF5B-RET, CCDC6-RET and mutations were cloned into pCDHL vector and were verified by sequencing. Reah RET expression vectors were separately co‐transfected with psPAX2 and pMD2.G packaging plasmids into 60-70% confluent HEK 293T cells maintained in 2 mL of culture medium in six‐well plates using Polyethyleneimine (PEI) transfection grade. Virus containing media was harvested after 48 h and filtered with 0.45 μm membrane and stored at -80 °C prior to infection. For infection of Ba/F3 cells, 1 mL of viral supernatant and 8 μg/mL polybrene were added to 5 million cells per well in six‐well plates. Infected cells were selected with the addition of 1 μg/mL puromycin for 2 weeks in RPMI-1640/ 10% FBS/ 1 ng/mL IL-3 medium. Subsquently, puromycin-resistant cells were cultured in IL-3-free medium for 1 week and RET fusion proteins were confirmed by immunoblot analysis.
(§3) Cell viability was assessed by luminescence using CellTiter-Glo 2.0 assay (Promega). IC50 curve fitting was performed using GraphPad Prism 9.0.
A general note: Cellular ATP, detected with luciferase, serves as a proxy for viable cell number.

In assay [3] the test system is Baf3-KIF5B-RET V804M cells. Put plainly: Proliferation assay (CellTiter-Glo). The settings on record: Mus musculus, read-out: Cellular Viability IC50. It is filed as cell-based, murine. Here is the method:
as §1, §2, §3

Assay [4] deals with Baf3-KIF5B-RET WT cells. Put plainly: Proliferation assay (CellTiter-Glo). In kind it is cell-based, murine. The settings on record: Mus musculus, read-out: Cellular Viability IC50. On the procedure: as §1, §2, §3
Assay [5] concerns Baf3-KIF5B-RET M918T cells. The assay can be described thus: Proliferation assay (CellTiter-Glo). In kind it is cell-based, murine. The conditions noted are these: Mus musculus, read-out: Cellular Viability IC50. On the procedure:
as §1, §2, §3

The record followed here is PMC11532403 (Signal Transduction and Targeted Therapy, 2024).

Structures are written as SMILES.

`COc1ccc(CN2C3CC2CN(c2ccc(-c4cc(N5CC(C)(O)C5)cn5ncc(C#N)c45)cn2)C3)cn1` [SY-5007, 6-(3-hydroxy-3-methylazetidin-1-yl)-4-(6-(6-((6-methoxypyridin-3-yl)methyl)-3,6-diazabicyclo[3.1.1]heptan-3-yl)pyridin-3-yl)pyrazolo[1,5-a]pyridine-3-carbonitrile]: the “Intracranial ORR” value in assay [1] (2/3 patients with measurable CNS metastases) was 66.7%. Also, the “Intracranial DCR” value in assay [1] (3/3 patients) was determined as 100.0%. Further, the results for the Intracranial lesion reduction in assay [1] (after 4 weeks) and in assay [1] (after 12 weeks) were 40.7% and 56.5%, respectively. Moreover, the IC50 (in general, the concentration that inhibits the measured activity by half) in assay [2] worked out at 0.0271 µM; in assay [3] it was 0.0453 µM; in assay [4], 0.00965 µM; in assay [5], 0.0136 µM.
